# Experimental data as given in patent US5872150A, “Treatment of prostate disease with a nonsteroidal anti-androgenic compound” (Merck & Co., Inc., priority 1997, dated 1999).
# “Also recorded” adds a separate entry of the source.
# What was measured:
# [1] = system: probasin luciferase reporter gene; test: Ligand dependent transcription assay, CV1 cells with probasin reporter gene and control plasmid, no AR (pPBluc); type: cell-based, rat
# Procedure: Ligand dependent transcription assays were performed as described in Schnmidt et al. "Identification of a new member of the steroid hormone receptor superfamily that is activated by a peroxisome proliferator and fatty acids," Mol. Endocrinol. […] A luciferase cDNA expressed under the control of the promoter region of the probasin gene that confers androgen receptor dependent transcription was used as a reporter gene, see Rennie et al. "Characterization of two cis-acting DNA elements involved in the androgen regulation of the probasin gene" Mol Endocrinol. […] Transient transfection of CV1 cells was performed by plating cells (1.5×10^5 per mL) into 12 well dishes in phenol red-free medium supplemented with 10% fetal calf serum treated with activated charcoal to remove endogenous steroids. Cells were then transfected the following day by addition of a calcium phosphate precipitate of plasmid DNA. Cells were then washed with fresh media after an overnight incubation and ligands were added. Cell extracts were prepared after forty eight hours and assayed for luciferase enzyme activity using the Luciferase Assay System (Promega). Each transfection was performed in triplicate and the […] of each sample was measured using the AutoChemiluminometer (Berthold).
# [2] = target: T1, androgen receptor (Homo sapiens, UniProt P10275); test: Binding to the human androgen receptor (hAR), displacement of [3H]-DHT, stable CHO transfectants; design: expressed in transfected cells; cytosol, 100,000×g supernatant; conditions: stable transfectants of CHO cells
# T1 sequence (P10275 1-920): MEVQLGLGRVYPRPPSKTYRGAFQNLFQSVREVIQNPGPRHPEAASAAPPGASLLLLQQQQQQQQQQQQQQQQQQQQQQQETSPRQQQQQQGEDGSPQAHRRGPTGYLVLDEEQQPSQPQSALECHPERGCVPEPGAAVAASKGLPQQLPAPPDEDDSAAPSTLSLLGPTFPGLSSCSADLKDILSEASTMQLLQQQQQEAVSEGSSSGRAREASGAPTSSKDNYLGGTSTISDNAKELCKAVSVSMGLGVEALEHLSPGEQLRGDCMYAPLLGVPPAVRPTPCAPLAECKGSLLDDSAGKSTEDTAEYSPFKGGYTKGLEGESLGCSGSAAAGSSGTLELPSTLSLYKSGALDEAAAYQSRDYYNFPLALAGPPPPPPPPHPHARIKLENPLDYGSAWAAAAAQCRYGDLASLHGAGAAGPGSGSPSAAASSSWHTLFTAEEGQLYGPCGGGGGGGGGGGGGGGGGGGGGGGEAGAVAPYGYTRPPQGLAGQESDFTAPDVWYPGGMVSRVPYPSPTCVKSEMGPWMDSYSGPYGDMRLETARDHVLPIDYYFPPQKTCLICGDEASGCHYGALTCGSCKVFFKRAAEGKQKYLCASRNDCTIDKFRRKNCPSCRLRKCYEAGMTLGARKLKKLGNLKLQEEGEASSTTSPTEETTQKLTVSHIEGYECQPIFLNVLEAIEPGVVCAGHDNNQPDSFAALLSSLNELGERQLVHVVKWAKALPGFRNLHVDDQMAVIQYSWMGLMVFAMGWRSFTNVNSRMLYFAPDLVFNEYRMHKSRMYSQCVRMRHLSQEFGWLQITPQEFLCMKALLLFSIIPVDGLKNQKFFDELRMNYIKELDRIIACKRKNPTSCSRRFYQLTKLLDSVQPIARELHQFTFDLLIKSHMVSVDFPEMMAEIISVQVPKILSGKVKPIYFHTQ
# Procedure: Binding to the Androgen Receptor
# All samples were prepared in duplicate. […] Free steroids were removed by addition of dextran-coated charcoal followed by centrifugation at 3,000×g for fifteen minutes at 4° C.
# 47: 1080-1088 (1995) except that stable transfectants of CHO cells were employed (gift from Prof. Michael McPhaul Southwestern Medical Center, Dallas, Tex.) that typically express 30-80 fmoles receptor/mg soluble protein.
# [3] = target: T1, androgen receptor; test: Ligand dependent transcription assay, CV1 cells co-transfected with AR and probasin luciferase reporter (pPBluc + AR); type: cell-based; design: expressed in transfected cells; host or cells: CV1 cells, transient co-transfection of pSGAR with the probasin-luciferase reporter pPBluc
# Procedure: FIG. 2 is a graph showing the effect of N-(4-chlorophenyl)-(Z,Z)-2,3-bis(cyclopropyl-methylene)cyclopentane carboxamide on the activation of the androgen receptor in CV1 cells, as described in Example 4.
# Ligand dependent transcription assays were performed as described in Schnmidt et al. "Identification of a new member of the steroid hormone receptor superfamily that is activated by a peroxisome proliferator and fatty acids," Mol. Endocrinol. 6:1634-1641 (1992). A luciferase cDNA expressed under the control of the promoter region of the probasin gene that confers androgen receptor dependent transcription was used as a reporter gene, see Rennie et al. "Characterization of two cis-acting DNA elements involved in the androgen regulation of the probasin gene" Mol Endocrinol. 7:23-36 (1993). The promoter region, -426 to +40 of the rat probasin gene was amplified by polymerase chain reaction (PCR) and inserted upstream of the luciferase cDNA of pGL3 Basic plasmid (Promega). The expression vector pSGAR that expressed the normal human AR was used as a source of receptor, see, Chang et al. "Molecular cloning of human and rat complementary DNA encoding androgen receptors," Science 240:324-326 (1988). Transient transfection of CV1 cells was performed by plating cells (1.5×10^5 per mL) into 12 well dishes in phenol red-free medium supplemented with 10% fetal calf serum treated with activated charcoal to remove endogenous steroids. Cells were then transfected the following day by addition of a calcium phosphate precipitate of plasmid DNA. Cells were then washed with fresh media after an overnight incubation and ligands were added. Cell extracts were prepared after forty eight hours and assayed for luciferase enzyme activity using the Luciferase Assay System (Promega). Each transfection was performed in triplicate and the […] of each sample was measured using the AutoChemiluminometer (Berthold).
# [4] = system: DDT1 cells; test: DDT1 Assay: androgen (testosterone) dependent growth of DDT1 cells, MTS proliferation; type: cell-based, Syrian hamster
# Procedure: Cells were plated in a 96 well plate at 2,000 cells/well in DFITS+0.1% fetal calf serum. […] Cell growth data were normalized to the greatest number of cells and error bars represent +/- one standard error of the mean (sem).
# Media was charged every 48 hours. Cells were plated at ~2,000/well in 96-well plates or ~6,000 cells/cm^2 in DMEM: F12 (GIBCO BRL) nutrient mixture (1:)+ITS™ (insulin, transferrin, selenious acid) (Collaborative Biomedical Products/Becton Dickinson Labware) (final concentrations 5 μg/mL insulin, 5 μ/mL transferrin, 5 ng/mL selenious acid) (DFITS media)+0.1% bovine calf serum (Hyclon®, BCS defined, iron supplemented).
# After 24 hours, the cells were washed with the same media except without added serum and replaced with fresh serum-free DFITS medium (day 0).
# In a typical experiment, cells were plated in sets of 12 in the presence of either a mock ethanol control (0.1-0.2% total volume) or N-(4-chlorophenyl)-(Z,Z)-2,3-bis(cyclopropylmethylene) cyclopentane carboxamide dissolved in 100% ethanol as a 1000X concentrated stock solution. Cell growth was then measured using a CellTiter96™ Non-Radioactive Cell Proliferation Assay (Promega Corporation) according to the manufacturer's protocol using a Bio Kinetics EL 340 microplate reader (BioTek Instruments, Inc.). 3-(4,5-dimethylthiazol-2-yl)-5-(3-carboxyl methoxyphenyl)-2-(4-sulfophenyl)-2H-tetrazolium (MTS) was diluted into media at a final concentration of 333 μg/mL and penazine methosulfate (PMS) was used at a final concentration of 25 μM with a total volume per well of 100 μL. Plates were then incubated for one hour at 37° C. in a humidified 5% CO2 atmosphere.
Compound,"pPBluc, Light Units ± std ([1]; DHT 10^-7 M)","pPBluc, Light Units ± std ([1]; DHT 10^-9 M)",blocking of the binding of 3H-DHT [2],"inhibition of transactivation mediated by DHT ([3]; CV1 cells, 10 nM DHT)","luciferase expression from the pPBluc reporter gene, compound alone ([3]; CV1 cells, without DHT)",IC50 ([3]; read-out: Fifty percent inhibition of transactivation),antagonism of the action of testosterone on DDT1 cells [4],"inhibition of testosterone-induced DDT1 cell growth, comparison with hydroxyflutamide [4]",effect on testosterone-induced cell proliferation ([4]; compound at 10 μM with 10 nM testosterone),"effect on cell proliferation, compound alone ([4]; without testosterone, serum-free medium)"
"C[C@]12CCC(=O)C[C@@H]1CC[C@@H]1[C@@H]2CC[C@]2(C)[C@@H](O)CC[C@@H]12 [DHT, 5α-dihydrotestosterone]",3300 ± 1100 Light Units,3000 ± 300 Light Units,,,,,,,,
"O=C(Nc1ccc(Cl)cc1)C1CCC(=C/C2CC2)/C1=C\C1CC1 (stereo not shown) [N-(4-chlorophenyl)-(Z,Z)-2,3-bis(cyclopropylmethylene)cyclopentane carboxamide]",,,blocks the binding of ^3 H-DHT to the human androgen receptor expressed in stable transfectants of CHO cells at doses comparable to those that antagonize testosterone in DDT1 cells,inhibited the transactivation mediated by DHT in a dose dependent manner,did not affect luciferase expression,~2000 nM,antagonizes the action of testosterone on DDT1 cells,inhibits testosterone-induced DDT1 cell growth in a manner similar to that of hydroxyflutamide,reduced cell proliferation to levels close to that of the ethanol mock control,little or no effect on cell growth by itself; also recorded: little or no effect on cell proliferation
